Biological target: phosphorylated active hERK2 enzyme (Homo sapiens (Human), UniProt P28482)
Assay: Active Human ERK2 (hERK2) Activity Assay (IMAP-FP)
Assay type: biochemical
Settings: Table 6, 0.5 nM hERK2, 30 μM ATP, 10 point titration, read-out: AERK2 IC50
Procedure, shortened: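 IMAP detection beads in buffer with 24 mM NaCl stopped the reaction, and fluorescence polarization was read after 60 min binding.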

Chain of phosphorylated active hERK2 enzyme (P28482 whole entry): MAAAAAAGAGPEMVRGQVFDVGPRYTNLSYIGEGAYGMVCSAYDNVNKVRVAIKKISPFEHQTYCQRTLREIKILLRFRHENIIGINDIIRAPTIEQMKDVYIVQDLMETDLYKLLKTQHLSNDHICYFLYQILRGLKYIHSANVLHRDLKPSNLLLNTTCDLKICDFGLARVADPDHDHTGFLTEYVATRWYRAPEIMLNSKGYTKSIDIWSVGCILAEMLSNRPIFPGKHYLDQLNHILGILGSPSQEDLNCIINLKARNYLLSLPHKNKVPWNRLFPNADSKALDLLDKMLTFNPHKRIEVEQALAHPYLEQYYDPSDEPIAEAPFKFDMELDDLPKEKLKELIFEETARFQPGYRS

Compound	IC50 [nM]
CC(C)COC(=O)Nc1n[nH]c2cc(NC(=O)N[C@H](C)c3ccccc3)ncc12 [Example 219, 2-methylpropyl [6-({[(1R)-1-phenylethyl}-carbamoyl}amino)-1H-pyrazolo[4,3-c]pyridin-3-yl]-carbamate]	32.5
COC(=O)Nc1n[nH]c2cc(NC(=O)N[C@H](C)c3ccccc3)ncc12 [Example 220, (R)-methyl (6-(3-(1-phenylethyl)ureido)-1H-pyrazolo[4,3-c]pyridin-3-yl)carbamate]	354
COCCOC(=O)Nc1n[nH]c2cc(NC(=O)N[C@H](C)c3ccccc3)ncc12 [Example 221, 2-methoxyethyl [6-({[(1R)-1-phenyl-ethyl]carbamoyl}-amino)-1H-pyrazolo[4,3-c]-pyridin-3-yl]-carbamate]	6.6
C[C@@H](NC(=O)Nc1cc2[nH]nc(NC(=O)Oc3ccccc3)c2cn1)c1ccccc1 [Example 222, phenyl[6-({[(1R)-1-phenylethyl]-carbamoyl}amino)-1H-pyrazolo[4,3-c]pyridin-3-yl]-carbamate]	3.6
CC(C)OC(=O)Nc1n[nH]c2cc(NC(=O)N[C@H](C)c3ccccc3)ncc12 [Example 223, 1-methylethyl[6-({[(1R)-1-phenylethyl]-carbamoyl}amino)-1H-pyrazolo[4,3-c]pyridin-3-yl]-carbamate]	12.4
C[C@@H](NC(=O)Nc1cc2[nH]nc(NC(=O)OCC(C)(C)C)c2cn1)c1ccccc1 [Example 224, 2,2-dimethylpropyl [6-({[(1R)-1-phenylethyl]-carbamoyl}amino)-1H-pyrazolo[4,3-c]pyridin-3-yl]-carbamate]	355
C[C@@H](NC(=O)Nc1cc2[nH]nc(NC(=O)OCc3ccccc3)c2cn1)c1ccccc1 [Example 225, benzyl [6-({[(1R)-1-phenylethyl]-carbamoyl}amino)-1H-pyrazolo[4,3-c]pyridin-3-yl]-carbamate]	39.8
CCNc1n[nH]c2cc(NC(=O)NCC(C)c3ccccc3)ncc12 (centres unmarked) [Example 226, 1-[3-(ethylamino)-1H-pyrazolo[4,3-c]pyridin-6-yl]-3-(2-phenylpropyl)-urea]	17
CCNc1n[nH]c2cc(NC(=O)NCc3c(C)cccc3Cl)ncc12 [Example 227, 1-(2-chloro-6-methylbenzyl)-3-[3-(ethylamino)-1H-pyrazolo[4,3-c]pyridin-6-yl]urea]	11.3
CCNc1n[nH]c2cc(NC(=O)NCc3ccccc3OC(F)F)ncc12 [Example 228, 1-[2-(difluoro-methoxy)benzyl]-3-[3-(ethylamino)-1H-pyrazolo[4,3-c]pyridin-6-yl]urea]	3.5
CCNc1n[nH]c2cc(NC(=O)N[C@H](C)C3CCCCC3)ncc12 [Example 230, 1-[(1R)-1-cyclohexylethyl]-3-[3-(ethylamino)-1H-pyrazolo[4,3-c]pyridin-6-yl]urea]	11.7
CCNc1n[nH]c2cc(NC(=O)NCc3cnsn3)ncc12 [Example 231, 1-[3-(ethylamino)-1H-pyrazolo[4,3-c]pyridin-6-yl]-3-(1,2,5-thiadiazol-3-ylmethyl)urea]	57
CCNc1n[nH]c2cc(NC(=O)NC3CNc4ccccc4C3)ncc12 (centres unmarked) [Example 232, 1-[3-(ethylamino)-1H-pyrazolo[4,3-c]pyridin-6-yl]-3-(1,2,3,4-tetrahydro-quinolin-3-yl)urea]	18.6
CCNc1n[nH]c2cc(NC(=O)NC3COc4ccccc4C3)ncc12 (centres unmarked) [Example 233, 1-(3,4-dihydro-2H-chromen-3-yl)-3-[3-(ethylamino)-1H-pyrazolo[4,3-c]pyridin-6-yl]urea]	28
CCNc1n[nH]c2cc(NC(=O)N[C@@H]3CCOc4ccccc43)ncc12 [Example 234, 1-[(4R)-3,4-dihydro-2H-chromen-4-yl]-3-[3-(ethylamino)-1H-pyrazolo[4,3-c]pyridin-6-yl]urea]	52
CCNc1n[nH]c2cc(NC(=O)NC3COc4ccccc43)ncc12 (centres unmarked) [Example 235, 1-(2,3-dihydro-1-benzofuran-3-yl)-3-[3-(ethylamino)-1H-pyrazolo[4,3-c]pyridin-6-yl]urea]	334
CCNc1n[nH]c2cc(NC(=O)N[C@@H](c3ccccc3)C3(O)CCCC3)ncc12 [Example 236, 1-[3-(ethylamino)-1H-pyrazolo[4,3-c]pyridin-6-yl]-3-[(S)-(1-hydroxy-cyclopentyl)-(phenyl)methyl]-urea]	0.7
CCNc1n[nH]c2cc(NC(=O)NC3CCCC3c3ccccc3)ncc12 (centres unmarked) [Example 237, 1-[3-(ethylamino)-1H-pyrazolo[4,3-c]pyridin-6-yl]-3-(2-phenyl-cyclopentyl)urea]	8.3
CCNc1n[nH]c2cc(NC(=O)NCc3cccnc3OCC)ncc12 [Example 238, 1-[(2-ethoxy-pyridin-3-yl)-methyl]-3-[3-(ethylamino)-1H-pyrazolo[4,3-c]pyridin-6-yl]urea]	9.6
CCNc1n[nH]c2cc(NC(=O)N[C@@H](CN(C)C)c3ccccc3)ncc12 [Example 239, 1-[(1R)-2-(dimethylamino)-1-phenylethyl]-3-[3-(ethylamino)-1H-pyrazolo[4,3-c]pyridin-6-yl]urea]	27.4
CCNc1n[nH]c2cc(NC(=O)NCc3ccc(F)c(Cl)c3)ncc12 [Example 240, 1-(3-chloro-4-fluorobenzyl)-3-[3-(ethylamino)-1H-pyrazolo[4,3-c]-pyridin-6-yl]urea]	14.7
CCNc1n[nH]c2cc(NC(=O)NCc3cccc(F)c3)ncc12 [Example 241, 1-[3-(ethylamino)-1H-pyrazolo[4,3-c]pyridin-6-yl]-3-(3-fluorobenzyl)-urea]	11.8
CCNc1n[nH]c2cc(NC(=O)NCc3c(F)cccc3OC)ncc12 [Example 242, 1-[3-(ethylamino)-1H-pyrazolo[4,3-c]pyridin-6-yl]-3-(2-fluoro-6-methoxybenzyl)-urea]	2.4
CCNc1n[nH]c2cc(NC(=O)N[C@H](C)c3cccc(F)c3)ncc12 [Example 243, 1-[3-(ethylamino)-1H-pyrazolo[4,3-c]pyridin-6-yl]-3-[(1R)-1-(3-fluorophenyl)-ethyl]urea]	1.7
CCNc1n[nH]c2cc(NC(=O)NCc3c(F)cccc3Cl)ncc12 [Example 244, 1-(2-chloro-6-fluorobenzyl)-3-[3-(ethylamino)-1H-pyrazolo[4,3-c]-pyridin-6-yl]urea]	10.8
CCNc1n[nH]c2cc(NC(=O)N[C@H](C)c3ccc(F)c(Cl)c3)ncc12 [Example 245, 1-[(1R)-1-(3-chloro-4-fluorophenyl)ethyl]-3-[3-(ethylamino)-1H-pyrazolo[4,3-c]pyridin-6-yl]urea]	6.7
CCNc1n[nH]c2cc(NC(=O)N[C@H](C)c3cccc(Cl)c3)ncc12 [Example 246, 1-[(1R)-1-(3-chlorophenyl)ethyl]-3-[3-(ethylamino)-1H-pyrazolo[4,3-c]pyridin-6-yl]urea]	2.4
CCNc1n[nH]c2cc(NC(=O)N[C@H](CC)c3ccc(Cl)cc3)ncc12 [Example 247, 1-[(1R)-1-(4-chlorophenyl)propyl]-3-[3-(ethylamino)-1H-pyrazolo[4,3-c]-pyridin-6-yl]urea]	2.2
CCNc1n[nH]c2cc(NC(=O)N[C@H](C)c3ccc(Cl)c(Cl)c3)ncc12 [Example 248, 1-[(1R)-1-(3,4-dichlorophenyl)ethyl]-3-[3-(ethyl-amino)-1H-pyrazolo[4,3-c]-pyridin-6-yl]urea]	3.2

Reference: patent US9233979B2, “Compounds that are ERK inhibitors” (Merck Sharp & Dohme Corp., priority 2012, dated 2016)
